Assays:
psoriasis lesions = test system: psoriasis lesions
Description: As of the filing of this application, a preliminary program of clinical testing has been conducted. […] Patients instructed to apply the product twice daily to the affected areas.

GSH levels = details: oral administration, cited from earlier work
[1] = patients with psoriasis symptoms, topical cream 45 mg/ml GSH in phospholipid carrier, twice daily

SMILES	adverse side effects (psoriasis lesions; clinical studies to date, topical application)	response of patient lesions to treatment (psoriasis lesions; patients with psoriasis symptoms, topical cream 45 mg/ml GSH in phospholipid carrier, applied twice daily to affected areas)	elasticity and supple feeling of the skin (psoriasis lesions; [1])	inflammation, irritation, and erythema of the skin (psoriasis lesions; [1])	time after first application to significant improvement (in some cases clearing) of lesions (psoriasis lesions; [1]) [h]	effect on GSH levels (GSH levels; HIV patients)	safety and tolerability (GSH levels)
N[C@@H](CCC(=O)N[C@@H](CS)C(=O)NCC(=O)O)C(=O)O [reduced glutathione (GSH), N-L-gamma-glutamyl-cysteinyl glycine]	no adverse side effects	significantly improved	returned	decreased	≤ 24		
O=C(O)CCCCC1CCSS1 (stereo not drawn) [alpha-lipoic acid, Alpha-lipoic acid]						raises GSH levels	extremely safe and well tolerated

From US20060069036A1, “Methods of treatment of inflammation using glutathiones” (priority 2004, published 2006)
